Structures are written as SMILES. Activity calls are given as the source filed them. The rule behind the calls is not given here.

Data set [1] in a line: Biodistribution in BALB/c mouse plasma xenografted with human 22Rv1 cells at 2.5 mg/kg, iv measured at 0.5 to 1 hrs. Format: ADME, organism-based, CWR22R. Particulars: in vivo, time 0.5-1 hrs. (In general: In xenograft studies the graft and the host belong to different species.)
Data set [2] in a line: Biodistribution in BALB/c mouse lung xenografted with human 22Rv1 cells at 2.5 mg/kg, iv measured at 0.5 to 1 hrs. Particulars: in vivo, time 0.5-1 hrs. The class given is ADME, organism-based, CWR22R.
The nature of data set [3]: Biodistribution in BALB/c mouse tumor xenografted with human 22Rv1 cells at 2.5 mg/kg, iv measured at 0.5 to 1 hrs. The class given is ADME, organism-based, Neoplasm, CWR22R. Particulars: in vivo, time 0.5-1 hrs.
The nature of data set [4]: Downregulation of AR-regulated TMPRSS2 protein level in human LNCaP cells at 300 nM measured for 48 hrs in presence of AR agonist, R1881 in charcoal stripped serum by Western blot analysis relative to control. Format: functional. In general terms: Immunoblotting shows a protein as a band on a membrane.
Data set [5] in a line: Toxicity in ICR mouse assessed as kidney damage at 30 to 50 mg/kg, iv administered every second day for 14 days. Format: organism-based. Particulars: in vivo, 336 h, dose 30-50 mg/kg, time 14 day.
Data set [6] deals with CWR22R. Briefly: Induction of apoptosis in human 22Rv1 cells assessed as increase in PARP level at 1 uM measured after 48 hrs by Western blot analysis. Format: functional, cell-based.
In data set [7] the test system is LNCaP. Put plainly: Downregulation of AR-regulated FKBP5 protein level in human LNCaP cells measured for 48 hrs in presence of AR agonist, R1881 in charcoal stripped serum by Western blot analysis. The class given is functional, cell-based. Particulars: dose 300-1000 nM.
Data set [8] concerns CWR22R. Briefly: Cytotoxicity against human 22Rv1 cells assessed as inhibition of cell growth incubated for 5 days in presence of AR agonist, R1881 by WST-1 assay. The class given is functional, cell-based. Particulars: 22Rv1, 120 h.
Data set [9] concerns CWR22R. Put plainly: Induction of apoptosis in human 22Rv1 cells assessed as increase in caspase-3 level at 1 uM measured after 48 hrs by Western blot analysis. The class given is functional, cell-based.
Data set [10] deals with CWR22R. Put plainly: Antitumor activity against human 22Rv1 cells xenografted in BALB/c nude mouse assessed as downregulation of AR-V7 level at 2.5 mg/kg, ip administered once every 4th day for 3 weeks. Format: functional, organism-based.
Data set [11] concerns LNCaP. Briefly: Antitumor activity against human LNCaP cells xenografted in BALB/c nude mouse assessed as inhibition of tumor growth at 2.5 to 5 mg/kg, po administered once every 4th day for 3 weeks. Format: functional, organism-based. Particulars: dose 2.5-5 mg/kg.
Data set [12] can be described thus: Toxicity in BALB/c nude mouse xenografted with human LNCaP cells assessed as animal weight loss at 5 mg/kg, ip administered once every 4th day for 3 weeks. The class given is organism-based. The conditions noted are these: in vivo, 504 h.
Data set [13] is described as follows: Biodistribution in BALB/c mouse liver xenografted with human 22Rv1 cells at 2.5 mg/kg, iv measured at 0.5 to 1 hrs. Format: ADME, organism-based, CWR22R. The conditions noted are these: in vivo, time 0.5-1 hrs.
A short description of data set [14]: Biodistribution in BALB/c mouse heart xenografted with human 22Rv1 cells at 2.5 mg/kg, iv measured at 0.5 to 1 hrs. The class given is ADME, organism-based, CWR22R. The conditions noted are these: in vivo, time 0.5-1 hrs.
Data set [15] has as its target T1, Androgen receptor (Homo sapiens) (UniProt P10275).
T1 sequence (whole entry): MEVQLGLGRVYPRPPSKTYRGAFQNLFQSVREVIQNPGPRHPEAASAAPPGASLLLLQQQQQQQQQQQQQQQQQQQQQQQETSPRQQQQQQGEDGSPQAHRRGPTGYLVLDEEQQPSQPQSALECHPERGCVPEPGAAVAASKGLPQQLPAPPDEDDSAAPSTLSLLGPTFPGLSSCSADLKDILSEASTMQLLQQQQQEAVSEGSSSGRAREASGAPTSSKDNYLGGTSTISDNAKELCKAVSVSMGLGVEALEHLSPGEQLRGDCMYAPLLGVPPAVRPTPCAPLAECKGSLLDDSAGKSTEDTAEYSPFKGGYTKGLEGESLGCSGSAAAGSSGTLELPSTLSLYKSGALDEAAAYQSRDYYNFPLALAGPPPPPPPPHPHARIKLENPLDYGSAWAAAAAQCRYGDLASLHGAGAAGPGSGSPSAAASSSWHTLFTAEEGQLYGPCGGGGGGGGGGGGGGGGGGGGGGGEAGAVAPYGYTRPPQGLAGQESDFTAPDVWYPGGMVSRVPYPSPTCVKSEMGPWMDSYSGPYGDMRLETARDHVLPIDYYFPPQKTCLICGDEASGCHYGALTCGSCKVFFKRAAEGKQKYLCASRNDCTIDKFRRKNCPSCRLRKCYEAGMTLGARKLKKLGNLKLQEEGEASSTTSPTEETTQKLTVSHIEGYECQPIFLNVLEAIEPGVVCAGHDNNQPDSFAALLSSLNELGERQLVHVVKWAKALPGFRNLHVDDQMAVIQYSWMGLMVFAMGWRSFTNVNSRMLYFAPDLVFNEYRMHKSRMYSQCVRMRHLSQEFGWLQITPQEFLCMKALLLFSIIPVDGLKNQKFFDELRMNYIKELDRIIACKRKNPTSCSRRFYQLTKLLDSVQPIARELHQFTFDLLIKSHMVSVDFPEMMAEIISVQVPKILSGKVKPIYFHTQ
Briefly: Induction of full length AR degradation in human RWPE-1 cells at 10 uM measured for 24 hrs by Western blot analysis. The class given is cell-based.

Data set [16] is described as follows: Toxicity in ICR mouse assessed as spleen damage at 30 to 50 mg/kg, iv administered every second day for 14 days. Format: organism-based. The conditions noted are these: in vivo, 336 h, dose 30-50 mg/kg, time 14 day.
Data set [17] concerns Androgen receptor (Homo sapiens), P10275 [UNDEFINED MUTATION]. Put plainly: Induction of AR-V7 degradation in human 22Rv1 cells measured upto 24 hrs by Western blot analysis. The conditions noted are these: dose 1000.0 nM. The class given is cell-based.
Data set [18] is described as follows: Downregulation of AR-regulated PSA protein level in human LNCaP cells at 300 nM measured for 48 hrs in presence of AR agonist, R1881 in charcoal stripped serum by Western blot analysis relative to control. The class given is functional.
Data set [19] is described as follows: Toxicity in ICR mouse assessed as lung damage at 30 to 50 mg/kg, iv administered every second day for 14 days. Format: organism-based. Particulars: in vivo, 336 h, dose 30-50 mg/kg, time 14 day.
For data set [20], the system named is Androgen receptor (Homo sapiens), P10275 [UNDEFINED MUTATION]. Briefly: Induction of AR-V7 degradation in human 22Rv1 cells at 100 nM by Western blot analysis. Format: cell-based. The conditions noted are these: time <= 48.0 hrs, TDE = time-dependent effect.

As for `CC(C)c1cc(-c2n[nH]c(=O)n2-c2ccc(CN3CCN(CC4CCN(c5ccc(C(=O)N[C@H]6CC[C@H](Oc7ccc(C#N)c(Cl)c7)CC6)nn5)CC4)CC3)cc2)c(O)cc1O`, the Drug uptake result in data set [1], in data set [2], in data set [3], in [13] and in data set [14] was “Active” throughout. Further, the Activity in data set [4] was greater than 50%; in data set [5], “Non-Toxic”; in [7] it was “Dose-Dependent Effect”; in [12], 10%; in [16], “Non-Toxic”; in [17], “Dose-Dependent Effect”. For the same molecule, the results for the Activity in data set [18], in [19] and in data set [20] were greater than 50%, “Non-Toxic” and “Tde”, respectively. The outcome in [6], in data set [9], in [10] and in data set [11] was Active. The IC50 (in general, the concentration that gives 50% inhibition) in data set [8] came out at 26.5 nM. In addition, in [15], the outcome was inactive.

The values above are taken from ChEMBL document CHEMBL5380834, “Design, Synthesis, and Biological Evaluation of Androgen Receptor (AR) Antagonist-Heat Shock Protein 90 (Hsp90) Inhibitor Conjugates for Targeted Therapy of Castration-Resistant Prostate Cancer” (J Med Chem, 2023).
